Data published in US20250179040A1, “HISTAMINE H3 RECEPTOR ANTAGONISTS AND THEIR PHARMACEUTICAL USES” (HANGZHOU BIO-SINCERITY PHARMA-TECH CO., LTD., priority 2022, published 2025).

Key:
histamine H3 receptor = histamine H3 receptor (Homo sapiens, UniProt Q9Y5N1); assay: FLPPR assay, antagonistic activity on histamine H3 receptor; assay type: cell-based; settings: for inhibition at 0.005 µM: read-out: % Inh-AVERAGE @ 5 nM; for inhibition at 0.05 µM: read-out: % Inh-AVERAGE @ 50 nM
Protocol: The FLPPR assay (NIH Assay Guidance Manual: HTS Assay Validation-Section 4.3. Analysis (Potency), htpps://www.ncbi.nlm.nih.gov/books/NBK83783) was performed using SUVN-G3031 as a positive control, and 21 target compounds were tested for the antagonistic activity target to histamine H3 receptor.

[1] = test system: histamine-induced scratching; assay: Antipruritic ability, histamine-induced scratching in mice; assay type: in vivo, C57BL/6J mice; settings: for number of histamine-induced scratched in mice: 10 mg/kg; for antipruritic effect compared with positive control dexamethasone: 10 mg/kg vs dexamethasone 3 mg/kg; for Inhibition Rate (%) of number of scratches: BIOS-B-12 10 mg/kg 4 h, BIOS-B-18 10 mg/kg 1 h, Dex 3 mg/kg 1 h before histamine 500 μg/50 μL s.c., observed 30 min, (Model-Compound)/Model×100%
Protocol: The C57BL/6J male mice, with 6-8 weeks old, were randomly divided into model group (Model), BIOS-B-12 compound group (10 mg/kg), BIOS-B-18 compound group (10 mg/kg) and dexamethasone group (Dex, 3 mg/kg), with 7 animals in each group. The mice were injected subcutaneously with 500 μg/50 μL histamine at the back of the neck after the administration of dexamethasone for 1 h, BIOS-B-12 for 4 h, and BIOS-B-18 for 1 h, respectively, and immediately observed for 30 min. The number of scratched was recorded and the inhibition rate was calculated as (Model-Compound)/Model×100%.

hERG channel = hERG channel (Homo sapiens, UniProt Q12809); assay: in vitro; settings: Average inhibition rate (%) on hERG channel
Description: In cardiomyocytes, inhibition of the delayed rectifier potassium current (IKr) channel protein encoded by the human Ether-a-go-go Related Gene (hERG) is the most important mechanism by which drugs lead to prolongation of the QT interval. hERG is characterized by a specific molecular structure, which allows it to be inhibited by different structures, leading to severe arrhythmias. Statistically, 25-40% of lead compounds show varying degrees of hERG-related toxicity. Therefore, early evaluation of the effects of compounds on hERG is crucial in the drug development process.
The inhibition rate of compounds on hERG channels was examined by manual membrane clamp technique on HEK293 cell line which is stably expressing hERG ion channels.

CCI model rats = assay: Analgesic effect, chronic constriction injury (CCI) model, mechanical withdrawal threshold; assay type: in vivo, SD rats
Description: Exposing the sciatic nerve on male SD rats' (180-200 g) right hind leg, in the anterior segment where the sciatic nerve is about to bifurcate, use sterile chromic gut thread (No. 4, 0.15 mm in diameter) to ligate 4 loops loosely, with each loop 1-2 mm apart, and suture the muscle and skin to establish the chronic constriction injury (CCI) model. In the sham-operated group, only the sciatic nerve was exposed without ligation, and the muscle and skin were sutured. The mechanical withdrawal threshold was detected by electronic analgesia meter (IITC-2391) on the 7th day for 2 consecutive days.
The CCI model rats with stabilized mechanical withdrawal thresholds were randomly divided into five groups, named model group (model), pregabalin group (Pre, 30 mg/kg), BIOS-B-12 compound group (3 mg/kg), BIOS-B-12 compound group (1 mg/kg), and BIOS-B-12 compound group (0.3 mg/kg), and were administered at 1 mL/100 g by gavage, and the same column of saline was gavaged in Sham an model group. The basic value was determined before drug administration, and the mechanical withdrawal thresholds were detected at 0.5 h, 1 h, 2 h, 4 h, 6 h, and 24 h after a single drug administration, and the p value was calculated by ANOVA with T-test.
The CCI model rats with stabilized mechanical withdrawal thresholds were randomly divided into three groups, named model group (model), pregabalin group (Pre, 30 mg/kg), and BIOS-B-14 compound group (1 mg/kg), and were administered at 1 mL/100 g by gavage, and the same column of saline was gavaged in Sham and model group. The basic value was determined before drug administration, and the mechanical withdrawal thresholds were detected at 0.5 h, 1 h, 2 h, 4 h, and 6 h after a single drug administration, and the p value was calculated by ANOVA with T-test.

[2] = BIOS-B-12 3, 1, 0.3 mg/kg vs pregabalin 30 mg/kg, FIG. 1 study

Sequence of histamine H3 receptor (Q9Y5N1 whole entry, species assumed): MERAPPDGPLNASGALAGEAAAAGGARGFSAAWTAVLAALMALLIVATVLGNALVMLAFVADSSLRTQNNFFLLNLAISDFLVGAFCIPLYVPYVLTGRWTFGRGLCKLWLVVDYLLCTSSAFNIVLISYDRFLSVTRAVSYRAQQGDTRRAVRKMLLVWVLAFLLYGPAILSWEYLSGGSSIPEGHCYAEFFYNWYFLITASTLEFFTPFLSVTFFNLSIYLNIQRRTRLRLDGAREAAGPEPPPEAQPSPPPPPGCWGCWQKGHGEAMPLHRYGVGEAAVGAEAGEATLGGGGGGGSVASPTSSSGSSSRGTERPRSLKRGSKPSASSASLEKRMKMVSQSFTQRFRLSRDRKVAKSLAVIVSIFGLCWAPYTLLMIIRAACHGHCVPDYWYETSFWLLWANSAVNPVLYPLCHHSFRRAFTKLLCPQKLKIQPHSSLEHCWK
Sequence of hERG channel (Q12809 whole entry): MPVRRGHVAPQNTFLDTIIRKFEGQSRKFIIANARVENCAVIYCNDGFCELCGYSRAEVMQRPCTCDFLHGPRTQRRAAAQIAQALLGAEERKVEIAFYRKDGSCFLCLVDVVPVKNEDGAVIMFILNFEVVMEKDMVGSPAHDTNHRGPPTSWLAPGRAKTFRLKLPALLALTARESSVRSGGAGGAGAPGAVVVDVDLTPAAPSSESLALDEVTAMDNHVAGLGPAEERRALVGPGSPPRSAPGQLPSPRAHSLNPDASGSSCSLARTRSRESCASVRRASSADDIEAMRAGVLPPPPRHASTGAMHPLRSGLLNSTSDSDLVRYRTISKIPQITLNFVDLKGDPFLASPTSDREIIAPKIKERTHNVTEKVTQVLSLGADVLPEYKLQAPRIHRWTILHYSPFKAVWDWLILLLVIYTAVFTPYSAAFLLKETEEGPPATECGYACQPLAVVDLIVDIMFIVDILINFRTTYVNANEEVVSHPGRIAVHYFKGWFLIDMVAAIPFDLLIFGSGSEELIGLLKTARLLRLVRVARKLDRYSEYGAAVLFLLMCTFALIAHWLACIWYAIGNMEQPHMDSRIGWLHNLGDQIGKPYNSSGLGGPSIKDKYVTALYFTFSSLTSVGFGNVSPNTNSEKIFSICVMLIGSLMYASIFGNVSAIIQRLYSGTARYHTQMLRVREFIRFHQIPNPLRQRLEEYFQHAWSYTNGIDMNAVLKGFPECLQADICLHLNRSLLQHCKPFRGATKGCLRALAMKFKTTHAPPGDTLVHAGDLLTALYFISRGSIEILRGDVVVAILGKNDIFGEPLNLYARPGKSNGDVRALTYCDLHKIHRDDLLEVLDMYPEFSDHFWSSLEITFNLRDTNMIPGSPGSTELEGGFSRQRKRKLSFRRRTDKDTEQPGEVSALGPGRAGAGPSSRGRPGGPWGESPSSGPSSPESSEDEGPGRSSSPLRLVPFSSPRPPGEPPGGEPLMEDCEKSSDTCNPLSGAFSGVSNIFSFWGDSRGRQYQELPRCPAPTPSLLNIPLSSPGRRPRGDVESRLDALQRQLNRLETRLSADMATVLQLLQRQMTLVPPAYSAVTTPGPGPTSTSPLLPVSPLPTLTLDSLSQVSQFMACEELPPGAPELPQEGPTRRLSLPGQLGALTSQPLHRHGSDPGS

| SMILES | inhibition at 0.005 µM (histamine H3 receptor) [%] | inhibition at 0.05 µM (histamine H3 receptor) [%] | Inhibition Rate (%) of number of scratches [1] [%] | inhibition at 10 µM (hERG channel) [%] | further results |
| --- | --- | --- | --- | --- | --- |
| O=C(CN1CCN(C2CCC2)CC1)Nc1ccc(OC2CC(N3CCCCC3)C2)cc1 (centres unmarked) [BIOS-B-12, 2-(4-cyclobutylpiperazin-1-yl)-N-(4-(3-(piperidin-1-yl)cyclobutoxy)phenyl)acetamide] | 99.1 | 98.8 | 36.6 | 2.06 | number of histamine-induced scratched in mice [1]: reduced; antipruritic effect compared with positive control dexamethasone [1]: more effective than the positive control; mechanical withdrawal thresholds vs model group (CCI model rats; 0.3 mg/kg single dose by gavage, 1 h to 2 h after administration, P<0.05, FIG. 1): significantly different; mechanical withdrawal thresholds vs model group (CCI model rats; 1 mg/kg single dose by gavage, 0.5 h to 6 h after administration, P<0.01, FIG. 1): significantly different; mechanical withdrawal thresholds vs model group (CCI model rats; 3 mg/kg single dose by gavage, 0.5 h to 24 h after administration, P<0.01, FIG. 1): significantly different; level of analgesia compared with pregabalin (CCI model rats; [2]): superior to that of pregabalin; period of analgesia time compared with pregabalin (CCI model rats; [2]): longer period of analgesia time; mechanical withdrawal thresholds in the CCI model rats, dose dependence (CCI model rats; single dose at 3, 1 and 0.3 mg/kg, FIG. 1): dose-dependently increasing |
| C[C@@H]1CCCN1CCNC(=O)Nc1ccc(OC2CC(N3CCCCC3)C2)cc1 (stereo partly drawn) [BIOS-B-14, (R)-1-(2-(2-methylpyrrolidin-1-yl)ethyl)-3-(4-(3-(piperidin-1-yl)cyclobutoxy)phenyl)urea] | 100 | 101 | – | 0.17 | mechanical withdrawal thresholds vs model group (CCI model rats; 1 mg/kg single dose by gavage, 0.5 h to 5 h after administration, P<0.05, FIG. 2): significantly increased; period of analgesia time compared with pregabalin (CCI model rats; BIOS-B-14 1 mg/kg vs pregabalin 30 mg/kg, FIG. 2 study): longer period of analgesia time than that of pregabalin |
| CN1CCCN(CCNC(=O)Nc2ccc(OC3CC(N4CCCCC4)C3)cc2)CC1 (centres unmarked) [BIOS-B-17, 1-(2-(4-methyl-1,4-diazepan-1-yl)ethyl)-3-(4-(3-(piperidin-1-yl)cyclobutoxy)phenyl)urea] | 101 | 99.4 | – | 1.52 | – |
| O=C(NCCN1CCC(F)(F)CC1)Nc1ccc(OC2CC(N3CCCCC3)C2)cc1 (centres unmarked) [BIOS-B-18, 1-(2-(4,4-difluoropiperidin-1-yl)ethyl)-3-(4-(3-(piperidin-1-yl)cyclobutoxy)phenyl)urea] | 99.7 | 99.9 | 55.0 | -0.65 | number of histamine-induced scratched in mice [1]: reduced; antipruritic effect compared with positive control dexamethasone [1]: more effective than the positive control |
| O=C(NCCN1CCC(O)CC1)Nc1ccc(OC2CC(N3CCCCC3)C2)cc1 (centres unmarked) [BIOS-B-19, 1-(2-(4-hydroxypiperidin-1-yl)ethyl)-3-(4-(3-(piperidin-1-yl)cyclobutoxy)phenyl)urea] | 101 | 101 | – | -0.09 | – |
| O=C(NCCN1CCSCC1)Nc1ccc(OC2CC(N3CCCCC3)C2)cc1 (centres unmarked) [BIOS-B-20, 1-(4-(3-(piperidin-1-yl)cyclobutoxy)phenyl)-3-(2-thiomorpholinoethyl)urea] | 100 | 101 | – | -0.66 | – |
| CN1CCN(CCNC(=O)Nc2ccc(OC3CC(N4CCCCC4)C3)cc2)CC1 (centres unmarked) [BIOS-B-22, 1-(2-(4-methylpiperazin-1-yl)ethyl)-3-(4-(3-(piperidin-1-yl)cyclobutoxy)phenyl)urea] | 101 | 99.5 | – | -2.43 | – |
| O=C(NCCN1CCCC(O)C1)Nc1ccc(OC2CC(N3CCCCC3)C2)cc1 (centres unmarked) [BIOS-B-23, 1-(2-(3-hydroxypiperidin-1-yl)ethyl)-3-(4-(3-(piperidin-1-yl)cyclobutoxy)phenyl)urea] | 100 | 100 | – | 0.37 | – |
| C[C@@H]1C[C@H]2[C@@H]3CCC4=CC(=O)C=C[C@]4(C)[C@@]3(F)[C@@H](O)C[C@]2(C)[C@@]1(O)C(=O)CO [Dex, dexamethasone, reference compound] | – | – | 29.3 | – | – |
| CC(C)C[C@H](CN)CC(=O)O [Pregabalin, pregabalin, reference compound] | – | – | – | – | mechanical withdrawal thresholds vs model group (CCI model rats; 30 mg/kg single dose by gavage, only from 0.5 h to 1 h after administration, FIG. 2 study): significantly different; mechanical withdrawal thresholds vs model group (CCI model rats; 30 mg/kg single dose by gavage, only from 0.5 h to 2 h after administration, FIG. 1 study): significantly different |
